In PubChem BioAssay (NCI):
Where “and” joins values, the source holds several entries; their conditions need not be identical. Identical values can stand only once.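 Five concentrations, 48 hours, 96-well plates. At the GI50, growth is halved. TGI denotes the concentration required for complete inhibition of growth.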

Experiments:
Experiment in all cases: NCI anticancer screen, dose series, 48 h
[1] = system: SW-620 colon
[2] = system: NCI-H522 lung
[3] = system: MOLT-4 leukemia
[4] = system: ACHN renal
[5] = system: SF-295 CNS
[6] = system: NCI-H460 lung
[7] = system: SNB-75 CNS
[8] = system: OVCAR-5 ovarian
[9] = system: MDA-MB-231 breast
[10] = system: HS 578T breast

SMILES	TGI [1] [µM]	TGI [2] [µM]	TGI [3] [µM]	TGI [4] [µM]	TGI [5]	TGI [6]	TGI [7] [µM]	TGI [8]	GI50 [1]	GI50 [3] [µM]	GI50 [4] [µM]	GI50 [5] [µM]	GI50 [6]	GI50 [7] [µM]	GI50 [9]	TGI [9]	TGI [10]	GI50 [10]	GI50 [2] [µM]	GI50 [8]
Cc1[nH]c2cc([N+](=O)[O-])ccc2c1[N+](=O)[O-]	97.9	38.4	71.4	50.3	48.8 µM	70.3 µM	57.5	79 µM												
CN1CCN(c2nc(N)c(Br)c(Cl)n2)CC1	> 100	> 100	> 100	> 100	> 100 µM	> 100 µM	> 100	> 100 µM												
O=C(CCc1ccccc1)CC1OC(=O)C(Cl)=C1Cl (stereo not drawn)	25.1	28.5	> 100	38.6	87.4 µM	96.2 µM	> 100	35 µM												
CC(=O)Nc1ccc(/C=c2\sc3nnc(-c4cccnc4)n3c2=O)cc1	34.2	33.2	64.3	26.9	> 100 µM	30.9 µM	57.7	67.1 µM												
CC1=C(C(=O)Nc2ccc(Cl)c(Cl)c2)C(c2cccc(Cl)c2)NC(=S)N1 (stereo not drawn)	36.1		> 50	37.1	> 50 µM	> 50 µM	> 50		15.6 µM	23.2	12.4	17.4	24.3 µM	30.4	8.15 µM	19.3 µM				
Cc1ccc(S(=O)(=O)C2CC2(Cl)Cl)cc1 (stereo not drawn)	44.1	26.7	42.1	70.8	> 100 µM	> 100 µM	> 100	> 100 µM												
COc1ccc(/C=C/c2ccnc3ccccc23)cc1OC	29.1	23.2	45.1	> 100	46.8 µM	28.5 µM		27.6 µM									81.6 µM			
CC(=O)CC(=O)Nc1ccccc1C(F)(F)F	> 100	> 100	> 100	> 100		> 100 µM	> 100	> 100 µM												
Fc1ccc(Nc2nc(Nc3ccc(-c4nc5ccccc5[nH]4)cc3)c3cn[nH]c3n2)cc1	4.24	4.02	5.63	5.08	4.08 µM	3.97 µM	3.57	7.62 µM	2.03 µM	2.55	2.05	1.87	1.99 µM	1.35			5.35 µM	2.12 µM	1.61	2.66 µM
COc1ccc2c(c1)[n+]([O-])c(-c1ccccc1Cl)c(N)[n+]2[O-]	> 100	31.3	> 100	> 100	> 100 µM	> 100 µM	> 100	> 100 µM												
CSc1ccc(C(=O)/C=C/c2ccc(Cl)cc2Cl)cc1	56	37.2	33.9	55.6	> 100 µM	96.4 µM		52.2 µM	22.2 µM	16.4	23.7	29.5	26.3 µM		27.7 µM	86.9 µM	68.4 µM	28.6 µM	14.4	21.6 µM
O=C(N/C(=C\c1ccc(/C=C(\NC(=O)c2ccccc2)c2nc3c(O)nc(S)nc3[nH]2)cc1)c1nc2c(O)nc(S)nc2[nH]1)c1ccccc1	> 100	41.1	> 100	> 100	> 100 µM	> 100 µM	84.7	> 100 µM												
COc1ccc2nc3ccccc3c(NCCCCN(CCCl)CCCl)c2c1	2.74		< 0.0369	1.15	18.6 µM	0.69 µM	2.04	> 23.6 µM								16.7 µM	> 22.1 µM			
COc1ccc2c(c1)nnc1c3cccnc3[nH]c21		3	0.219	> 100	11.3 µM and > 100 µM	9.03 µM and 3.79 µM		20.2 µM and > 100 µM	0.378 µM and 0.978 µM	0.0299	0.231		1.93 µM and 1.28 µM		1.42 µM and 1.56 µM	11.4 µM and 6.1 µM	25.5 µM and 81.2 µM	3.47 µM and 4.89 µM	1.09	5.72 µM and 35.4 µM
NC(=O)c1ncn(C2OC(CO)C(O)C2O)c1O (stereo not drawn)	> 100		> 100	> 100	> 100 µM	> 100 µM	> 100	> 100 µM												
N#Cc1ccc(C2SCc3nc4ccccc4n32)cc1 (stereo not drawn)	> 100	75.8	> 100	> 100	> 100 µM	> 100 µM	> 100													
CSc1nnc(C(C#N)C#N)nn1	> 100	> 100	> 100		> 100 µM	> 100 µM	> 100	> 100 µM												
CC1=C2C=CC(=O)C[C@@]2(C)CCC1	> 100	> 100	> 100	> 100	> 100 µM	> 100 µM	> 100	> 100 µM												
Cc1ccc(Nc2nc(-c3ccc(-c4ccc([N+](=O)[O-])cc4)o3)cs2)cc1	> 100		> 100	> 100	> 100 µM	> 100 µM	> 100	> 100 µM												
COC(=O)[C@@]12C3=NO[C@]1(C(=O)OC)C(O[Si](C)(C)C(C)(C)C)[C@@H](OC(C)=O)[C@@H](OC(C)=O)[C@@H]2[C@@H](OCc1ccccc1)CC3 (stereo partly drawn)	> 100	> 100	> 100	> 100	> 100 µM	> 100 µM	> 73.7	> 100 µM												

SMILES	TGI [1] [µM]	TGI [2] [µM]	TGI [3] [µM]	TGI [4] [µM]	TGI [5]	TGI [6]	TGI [7] [µM]	TGI [8]	GI50 [1]	GI50 [3] [µM]	GI50 [4] [µM]	GI50 [5] [µM]	GI50 [6]	GI50 [7] [µM]	GI50 [9]	TGI [9]	TGI [10]	GI50 [10]	GI50 [2] [µM]	GI50 [8]
O=C1/C(=C/c2ccc(C(F)(F)F)cc2)COc2ccc(O)c(O)c21		0.515		2.31	8.52 µM	3.9 µM	3.02	3.09 µM			1.11	3.15	1.85 µM	1.39	1.18 µM	2.65 µM	6.02 µM	2.2 µM	0.216	1.6 µM
CCOCCOCCOCCOCCOCCOCCOCCOCCOCCO (tested in a mixture with another compound)	8.17		1.69		4.12 µM	6.82 µM	5.34		1.56 µM	0.628		0.869	1.2 µM	0.728			9.59 µM	1.81 µM		
Cc1ccc(S(=O)(=O)NNS(C)(=O)=O)cc1	> 100	> 100	> 100	> 100	> 100 µM	> 100 µM	> 100													
CCC(c1ccccc1)c1cc(C(C)(C)C)cc(C(C)(C)C)c1O (stereo not drawn)	30.5	27.2		32.6	26.9 µM	31.3 µM	27.2	26.6 µM								31.9 µM	32.3 µM			
CCN(CC)C(=S)SS(C)(=O)=O	35.2	0.137	42.8	31.8	98 µM		> 100	42.2 µM												
CC(=O)[CH-]C(=O)c1ccccc1.CC(=O)[CH-]C(=O)c1ccccc1.CC(=O)[CH-]C(=O)c1ccccc1.[Ga+3]	55.8	25	30.4	> 100	47.5 µM	28.7 µM	69.3	66.8 µM	23 µM	9.64	30.3	23.3	11.8 µM	20.3					12.1	26.5 µM
CC(=O)C1C(=O)C(=O)N(CCN2C(=O)C(=O)C(C(C)=O)C2=O)C1=O (stereo not drawn)	> 100	> 100		> 100	> 100 µM	> 100 µM	> 100	> 100 µM												
CCOC(=O)C1C(=O)CC(=O)C2CCCCC21 (stereo not drawn)	> 100	> 100	> 100	> 100	> 100 µM	> 100 µM	> 100	> 100 µM												
O=C(C(=CN1CCN(C(=O)c2ccco2)C1=S)C(=O)c1ccccc1)c1ccccc1	20.3		> 50	16.5	33 µM	11.6 µM	> 50		8.73 µM	15.2	5.75	11.1	2.35 µM	27.4	7.41 µM	20.1 µM				
CC1(C)C(=O)/C=C\C(=O)C(C)(C)C(=O)/C=C\C(=O)C(C)(C)C2=CC=C(O2)C(C)(C)C(=O)/C=C\C1=O	3.59	2.22	4.81	12.6	31.1 µM	46.8 µM	20.2	37.1 µM									50 µM			
N#CC1=C(N)OC2=C(CCOc3c2ccc2ccccc32)C1c1ccc(Br)cc1 (stereo not drawn)	> 100	> 100	49	> 100	83.8 µM	> 100 µM		> 100 µM	> 100 µM	11.3	41.3	18.1	28.4 µM						> 100	96.3 µM
Cc1c(-c2ccccn2)ccc2ccccc12	> 100		> 100	> 100	> 100 µM	> 100 µM	> 100	> 100 µM								> 100 µM	> 100 µM			
CN(C)N=Nc1ccc(S(N)(=O)=O)cc1	> 100	> 100	> 100	> 100	> 100 µM	> 100 µM	> 100	> 100 µM												
O=C1C(Cl)=C(NCCCN(CCCNC2=C(Cl)C(=O)c3ccccc3C2=O)C2=C(Cl)C(=O)c3ccccc3C2=O)C(=O)c2ccccc21	4.9	4.98			14.7 µM	> 100 µM	39.3	17.2 µM	2.21 µM			3.07	3.02 µM	20.6	1.93 µM		> 100 µM	2.88 µM	1.97	4.85 µM
COc1ccc(C(=O)C(C(=O)C(=O)NCCCNC(=O)C(=O)C(C(=O)c2ccc(OC)cc2)c2ccc(OC)cc2)c2ccc(OC)cc2)cc1 (stereo not drawn)	> 100	> 100	> 100		> 100 µM	> 100 µM	> 100	> 100 µM												
COC1/C(=C\C(C)=O)c2ccccc2N1C(C)=O (stereo not drawn)	> 100		> 100	> 100	> 100 µM	> 100 µM	> 100													
Clc1ccc(-c2nc(NCc3ccco3)c3ccccc3n2)c(Cl)c1		> 100	> 100	58.3	33.5 µM	> 100 µM		> 100 µM		9.16	7.81	13.6	32.9 µM				46.4 µM	14.2 µM	33.7	40.1 µM
CN(CCCCCl)P(=O)(OCc1ccc([N+](=O)[O-])o1)OCC1OC(n2cc([N+](=O)[O-])c(=O)[nH]c2=O)CC1O (stereo not drawn)	> 100	> 100	> 100	> 100	> 100 µM	> 100 µM		> 100 µM	> 100 µM	25.1	17.5	49.8	3.01 µM		> 100 µM	> 100 µM	> 100 µM	> 100 µM	> 100	> 100 µM
CCCCCCCCN=C(NCCCCCCCC)SCc1cccc2ccccc12	3.36	2.87	4.19		3.02 µM	3.38 µM	3.18	2.79 µM	1.65 µM	1.83		1.51	1.69 µM	1.66	1.14 µM	2.55 µM	3.81 µM	1.61 µM	1.38	1.36 µM
C=CCSC(C)=O	> 100	> 100		> 100	> 100 µM	> 100 µM	> 100	> 100 µM								> 100 µM	> 100 µM			
